From US8008329B2 (Dong Wha Pharmaceutical Co., Ltd., priority 2008, dated 2011)
Marks after values point to notes of the source that are not given here.

Tested on: osteoclast differentiation
Experiment: Osteoclast differentiation in co-culture of mouse bone marrow cells and ST2 cells, TRAP staining (Examples 8-9)
Assay type: cell-based
Details: for % number of osteoclast (vs. solvent control group): 0.1 μM each, day 7; for activity at 0.1 µM: Mus musculus, Osteoclast, 168 h, Individual treatment (compounds), day 7, read-out: % number of osteoclast (vs. solvent control group)
Method: The differentiation of osteoclast from mouse bone marrow cells was induced by using co-culture system, and inhibitory effect of the drug on osteoclast differentiation was evaluated by treatment of single or combination formulation. Co-culture was performed using mouse bone marrow cells and ST cells of bone marrow-derived stromal cell.
Femora and tibia were aseptically ectomized from 6˜8 week-old male ddY mice to harvest bone marrow cells by a general method using a syringe. The red blood cells were removed from the bone marrow cells, followed by centrifugation. The bone marrow cells were suspended in α-MEM medium supplemented with 10% fetal bovine serum, and the numbers of the eukaryotic cells in the harvested bone marrow cells were counted and then immediately used for a co-culture system.
ST2 cells (RIKEN Cell Bank, Tsukuba, Japan) were cultured in α-MEM medium supplemented with 10% fetal bovine serum until confluent. Then, these cells were diluted to a desired cell number, and used for the experiment.
The bone marrow cells (1×10^5 cells/well) and ST2 cells (3,000 cells/well) prepared in the above were plated in a 96-well plate using α-MEM medium supplemented with 10% fetal bovine serum. At this time, differentiation factors, 1α,25-dihydroxyvitamin D3 (10^−8 M, hereinbelow, referred to as vitamin D3) and dexamethasone (10^−8 M), were co-added to the medium to induce osteoclast differentiation. The medium was replaced with fresh media containing the differentiation factors every 2 to 3 days.
After 7 days, when multinucleated osteoclasts were observed, the medium was removed from the wells, and then the cells were fixed with PBS containing 10% Formalin. Tartrate-Resistant Acid Phosphatase (hereinbelow, referred to as TRAP) was used as a marker to measure the mature osteoclast in consideration of its characteristics showing a positive reaction to a TRAP staining solution. The TRAP staining solution was prepared in such the manner that a substrate, naphtol AS-MS phosphate and a coloring agent (Fast Red Violet LB salt) were dissolved in N,N-dimethylformamide. A 0.1 N NaHCO3 buffer solution containing 50 mM tartaric acid was added thereto, and the mixture was stored at a refrigerator prior to use as a staining solution. The osteoclasts with 6-7 or more nuclei showing a TRAP-positive reaction were counted under a microscope.
Alendronic acid was dissolved in distilled water at a concentration of 0.1 mM, and benzamidine derivatives were dissolved in DMSO at a concentration of 0.1 mM. All of them were diluted 1,000 fold with the differentiation media to a final concentration of 0.1 μM, respectively. In this connection, a control group was maintained in 0.1% DMSO.
As the above described, the sample substances and cells, which were diluted to the desired concentrations, were plated in 96-well plate, and co-cultured. On days 3 and 5 of culture, the media were replaced with fresh differentiation media containing the sample substances. On day 7 of culture, TRAP staining was performed to count the mature multinucleated osteoclast that was formed by differentiation. The mature osteoclasts with 6 or more nuclei were counted under a microscope. The results were expressed as a percentage (%) of the number of mature osteoclast observed in each experimental group, when the number of mature osteoclast in the control group (solvent only) was regarded as 100%. The experiment was performed with 4 wells per experimental group (n=4), and the results were expressed as mean value±standard deviation. In addition, the experiment was repeated at least two times, and Student t-test was applied for significant difference between experimental groups.
The experiment was performed in the same manner as in Example 8 to evaluate the effect of individual or combination treatment of risedronic acid and benzamidine derivatives of Formula 1 on osteoclast differentiation, except using 0.1 μM risedronic acid instead of 0.1 μM alendronic acid. […]

[1] = Combination treatment (alendronic acid + compounds)
[2] = Combination treatment (risedronic acid + compounds)

SMILES	% number of osteoclast (vs. solvent control group) [1]	% number of osteoclast (vs. solvent control group) [2]	activity at 0.1 µM
CCCNc1nc(-c2ccc(OCCCCCOc3ccc(C(=N)NO)cc3)cc2)c(C)s1 [Compound 88, N-hydroxy-4-{5-[4-(5-methyl-2-propylamino-1,3-thiazol-4-yl)phenoxy]pentyloxy}-benzamidine]	61 ± 11.7%	29 ± 4.7^ac %	63 ± 7.6%
Cc1nc(-c2ccc(OCCCCCOc3ccc(C(=N)NO)cc3)cc2)c(CCN2CCOCC2)s1 [Compound 231, N-hydroxy-4-(5-{4-[2-methyl-5-(2-morpholin-4-yl-ethyl)-thiazol-4-yl]-phenoxy}-pentyloxy)-benzamidine]	50 ± 9.8^b %	40 ± 3.1^ac %	82 ± 14.6%
Cc1nc(-c2ccc(OCCCCCOc3ccc(C(=N)NO)cc3)cc2)c(C2CCCC2)s1 [Compound 43, N-hydroxy-4-{5-[4-(5-cyclopentyl-2-methyl-1,3-thiazol-4-yl)phenoxy]pentyloxy}-benzamidine]	32 ± 6.6^ab %	40 ± 7.8^c %	74 ± 14.6%
CCCNc1nc(-c2ccc(OCCCCCOc3ccc(C(=N)NO)cc3)cc2)c(CC)s1 [Compound 98, N-hydroxy-4-{5-[4-(5-ethyl-2-propylamino-1,3-thiazol-4-yl)phenoxy]pentyloxy}-benzamidine]	29 ± 1.6^ab %	11 ± 3.2^ac %	47 ± 3.2%
Cc1nc(-c2ccc(OCCCCOc3ccc(C(=N)NO)cc3)cc2)c(C(C)C)s1 [Compound 194, N-hydroxy-4-{4-[4-(5-isopropyl-2-methyl-1,3-thiazol-4-yl)phenoxy]butoxy}-benzamidine]	33 ± 7.1^ab %	30 ± 7.0^ac %	74 ± 10.1%
CCc1sc(NS(=O)(=O)CC)nc1-c1ccc(OCCCCCOc2ccc(C(=N)NO)cc2)cc1 [Compound 95, N-hydroxy-4-{5-[4-(2-ethanesulphonylamino-5-ethyl-1,3-thiazol-4-yl)phenoxy]pentyloxy}-benzamidine]	37 ± 10.3^ab %	33 ± 6.8^ac %	90 ± 5.4%
Cc1nc(-c2ccc(OCCCCCOc3ccc(C(=N)NO)cc3)cc2)c(CCN2CC(C)OC(C)C2)s1 (stereo not drawn) [Compound 227, N-hydroxy-4-[5-(4-{5-[2-(2,6-dimethyl-morpholin-4-yl)-ethyl]-2-methyl-thiazol-4-yl}-phenoxy)-pentyloxy]-benzamidine]	24 ± 5.0^ab %	17 ± 4.4^ac %	42 ± 4.6%
CNc1nc(-c2ccc(OCCCCCOc3ccc(C(=N)NO)cc3)cc2)c(CCN2CCSCC2)s1 [Compound 262, N-hydroxy-4-(5-{4-[2-methylamino-5-(2-thiomorpholin-4-yl-ethyl)-thiazol-4-yl]-phenoxy}-pentyloxy)-benzamidine]	24 ± 2.6^ab %	7 ± 4.9^ac %	47 ± 4.2%
CC(C)c1nc(-c2ccc(OCCCCCOc3ccc(C(=N)NO)cc3)cc2)c(CC2CCCC2)s1 [Compound 47, N-hydroxy-4-{5-[4-(5-cyclopentylmethyl-2-isopropyl-1,3-thiazol-4-yl)phenoxy]pentyloxy}-benzamidine]	42 ± 4.6^b %	32 ± 3.0^ac %	57 ± 7.9%
CN(C)c1nc(-c2ccc(OCCCCCOc3ccc(C(=N)NO)cc3)cc2)c(CC2CCCC2)s1 [Compound 163, N-hydroxy-4-{5-[4-(5-cyclopentylmethyl-2-dimethylamino-1,3-thiazol-4-yl)phenoxy]pentyloxy}-benzamidine]	55 ± 7.6%	41 ± 7.3^ac %	65 ± 8.8%
Cc1nc(-c2ccc(OCCCCCOc3ccc(C(=N)NO)cc3)cc2)c(N)s1 [Compound 331, N-hydroxy-4-{5-[4-(5-amino-2-methyl-thiazol-4-yl)-phenoxy]-pentyloxy}-benzamidine]	18 ± 4.6^ab %	7 ± 1.2^ac %	43 ± 2.7%
CC(C)c1nc(-c2ccc(OCCCCCOc3ccc(C(=N)NO)cc3)cc2)c(CCN(C(=O)c2ccncc2)C2CC2)s1 [Compound 280, N-hydroxy-4-{5-[4-(5-{2-[cyclopropyl-(pyridin-4-carbonyl)-amino]-ethyl}-2-isopropyl-thiazol-4-yl)-phenoxy]-pentyloxy}-benzamidine]	25 ± 6.4^b %	8 ± 1.4^ac %	40 ± 5%
CNc1nc(-c2ccc(OCCCCCOc3ccc(C(=N)NO)cc3)cc2)c(CN2CCOCC2)s1 [Compound 335, N-hydroxy-4-{5-[4-(2-methylamino-5-morpholin-4-ylmethyl-thiazol-4-yl)-phenoxy]-pentyloxy}-benzamidine]	41 ± 2.0^ab %	23 ± 5.0^ac %	54 ± 0.9%
N=C(NO)c1ccc(OCCCCCOc2ccc(-c3csc(-c4cccnc4)n3)cc2)cc1 [Compound 7, N-hydroxy-4-{5-[4-(2-pyridine-3-yl-1,3-thiazol-4-yl)phenoxy]pentyloxy}-benzamidine]	35 ± 7.1^b %	34 ± 10.1^c %	52 ± 4.8%
N=C(NO)c1ccc(OCCCCCOc2ccc(-c3nc(C4CCCCC4)sc3CCN3CCSCC3)cc2)cc1 [Compound 249, N-hydroxy-4-(5-{4-[2-cyclohexyl-5-(2-thiomorpholin-4-yl-ethyl)-thiazol-4-yl]-phenoxy}-pentyloxy)-benzamidine]	24 ± 4.0^ab %	13 ± 4.8^ac %	36 ± 4%
CC(C)c1nc(-c2ccc(OCCCCCOc3ccc(C(=N)NO)cc3)cc2)c(CCN2CCSCC2)s1 [Compound 245, N-hydroxy-4-(5-{4-[2-isopropyl-5-(2-thiomorpholin-4-yl-ethyl)-thiazol-4-yl]-phenoxy}-pentyloxy)-benzamidine]	23 ± 4.9^b %	16 ± 4.1^ac %	35 ± 5.7%
CCc1sc(-c2cccnc2)nc1-c1ccc(OCCCCCOc2ccc(C(=N)NO)cc2)cc1 [Compound 21, N-hydroxy-4-{5-[4-(5-ethyl-2-pyridin-3-yl-1,3-thiazol-4-yl)phenoxy]pentyloxy}-benzamidine]	22 ± 7.1^ab %	47 ± 10.1%	52 ± 10.4%
Cc1nc(-c2ccc(OCCCOc3ccc(C(=N)NO)cc3)cc2)c(C(C)C)s1 [Compound 193, N-hydroxy-4-{3-[4-(5-isopropyl-2-methyl-1,3-thiazol-4-yl)phenoxy]propoxy}-benzamidine]	34 ± 5.0^ab %	27 ± 4.8^ac %	48 ± 4.4%
Cc1sc(NC(=O)C(C)C)nc1-c1ccc(OCCCCCOc2ccc(C(=N)NO)cc2)cc1 [Compound 69, N-hydroxy-4-{5-[4-(2-(isobutyryl)amino-5-methyl-1,3-thiazol-4-yl)phenoxy]pentyloxy}-benzamidine]	49 ± 7.8^ab %	44 ± 1.4^ac %	80 ± 11.6%
